Measured values taken from publication PMC11923874, “Integration of Phytomelatonin Signaling With Jasmonic Acid in Wound‐induced Adventitious Root Regeneration” (Advanced Science, 2025).

Assays:
SlPMTR1 = biological target: T1, SlPMTR1; test: microscale thermophoresis (GFP fusion); assay type: binding, Solanum lycopersicum; settings: 22 °C, 30 min incubation; His-MBP-GFP fusion protein at 1 mg/ml
T1 construct: 6xHis-MBP-SlPMTR1-GFP fusion, pMAL-c2, E. coli Rosetta (DE3), Ni-NTA purified; seven-transmembrane protein; native length 300 residues (fragments 1-134 and 135-300); tags kept

SlPMTR2 = biological target: T2, SlPMTR2 (Solanum lycopersicum, UniProt A0A3Q7GXJ6); test: microscale thermophoresis (GFP fusion); assay type: binding
T2 construct: gene LOC101260652; 6xHis-MBP-SlPMTR2-GFP fusion, pMAL-c2, E. coli Rosetta (DE3), Ni-NTA purified; seven-transmembrane protein; native length 309 residues (fragments 1-140 and 141-309); tags kept
T2 sequence (A0A3Q7GXJ6 1-309): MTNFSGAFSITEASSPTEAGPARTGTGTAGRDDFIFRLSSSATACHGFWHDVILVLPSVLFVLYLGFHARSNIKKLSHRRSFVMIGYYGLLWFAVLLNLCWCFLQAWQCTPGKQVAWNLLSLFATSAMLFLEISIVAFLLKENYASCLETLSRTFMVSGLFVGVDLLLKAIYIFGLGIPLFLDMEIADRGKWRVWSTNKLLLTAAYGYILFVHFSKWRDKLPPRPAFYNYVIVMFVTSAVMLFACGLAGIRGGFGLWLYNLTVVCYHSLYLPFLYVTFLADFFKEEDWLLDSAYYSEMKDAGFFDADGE

Q: What does the source list for `COc1ccc2[nH]cc(CCNC(C)=O)c2c1` [melatonin]?
A: Kd (SlPMTR1): 50.7 nM; Kd (SlPMTR2): 419 nM
